Patent publication US6919298B2, “Enhanced herbicide composition” (Valent Biosciences Corporation, priority 2002, dated 2005)
“And” between values parts separate entries of the source, which are not always exact repeats. Equal entries are not always repeated.

What was measured:
[1] = system: tobacco; parameters: species or system Nicotiana tabacum (tobacco); conditions: in vivo
Method: (§1) COC was added to all spray solutions at a rate of 0.25% (v/v). For all treatments containing both an herbicide and an SAR inducer, these materials were mixed and applied in a single spray solution (commonly known as a tank mix). After spraying, plants were moved to the greenhouse and arranged in a randomized complete block experimental design. Plants were evaluated for phytotoxicity/herbicidal effects after spraying by assessing damage according to percent leaf area affected.
All the data were subject to an analysis of variance, and the mean separations were determined with Duncan's new multiple range test at α=0.05. The present invention may be illustrated by the following representative examples:
In this experiment, the plants were treated and kept in the dark for 48 hours from the first spray treatment to delay the light-dependent effects of paraquat.

[2] = system: lambsquarter (Chenopodium album); assay: Spray (tank mix) phytotoxicity/herbicidal effect on lambsquarter; format: in vivo
Method: (§2) In all experiments, deionized ultra-pure water was used in preparing solutions. Spray solutions were used as soon as possible after mixing.
as §1
(§3) All the data were subject to an analysis of variance, and the mean separations were determined with Duncan's new multiple range test at α=0.05. The present invention may be illustrated by the following representative examples: […]

[3] = system: tobacco; parameters: species or system Nicotiana tabacum (tobacco); conditions: in vivo; remark: listed apart in the source
Method: as §1, §3

[4] = system: giant foxtail; assay: Spray (tank mix) phytotoxicity/herbicidal effect on giant foxtail; format: in vivo; conditions: monocotyledonous plant species (giant foxtail, Table 2)
Method: as §2, §1, §3

[5] = system: tobacco; assay: Spray (tank mix) phytotoxicity/herbicidal effect on greenhouse tobacco; format: in vivo, Nicotiana tabacum (tobacco); conditions: for Phytotoxicity at 4d post-spraying: Percent Leaf Area Affected / Phytotoxicity at 6d post-spraying: Percent Leaf Area Affected: paraquat 187 mg/l and/or Ethephon 1000 ul/l
Method: as §2, §1, §3

[6] = tobacco, added to the paraquat spray solution
[7] = lambsquarter, Actigard 187 mg/l, with or without paraquat 150 mg/l, COC 0.25%
[8] = lambsquarter, Actigard 935 mg/l, with or without paraquat 150 mg/l, COC 0.25%
[9] = tobacco, Actigard 187 mg/l, with or without paraquat 150 mg/l, COC 0.25%
[10] = tobacco, Actigard 935 mg/l, with or without paraquat 150 mg/l, COC 0.25%

Which “Safening from paraquat (in words)” value [1] does the source give for `O=C([O-])c1ccccc1O.[Na+]` [NaSA, sodium salicylate] here?
The value was “resulted in safening”.

What about the “Protection from paraquat damage (in words)” value (“Protection” for short) ([2]; in vivo) of the same molecule?
The value was “limited or no protection from paraquat damage”.

What about the “Protection” value [3] of the same molecule?
Its value is “significant protection from paraquat damage”.

What about the “Safening from paraquat damage (in words)” value [4] of the same molecule?
The value was “safen plants from paraquat damage”.

And the “Safening from paraquat herbicide damage (in words)” value ([5]; in vivo)?
The value was “safened the plants from paraquat herbicide damage”.

What about the “Safening against diquat (in words)” value ([5]; tobacco, Table 3) of the same molecule?
The value was “able to safen tobacco against the herbicide diquat”.

For `c1cc[n+]2c(c1)-c1cccc[n+]1CC2` [Diquat, 1,1′-ethylene-2,2′-bipyridyidiylium ion], which “Phytotoxicity at 1d” value ([5]; in vivo) is on record?
Its value is 3.3. D.

What about the “Phytotoxicity at 4d” value ([5]; in vivo) of the same molecule?
Its value is 4.3 C.

What about the “Phytotoxicity at 6d” value ([5]; in vivo) of the same molecule?
Its value is 4.3 C.

And the “Phytotoxicity at 12d” value ([5]; in vivo)?
The value was 3.9 C.

Which results are given for `O=P(O)(O)CCCl` [Ethephon, (2-choroethyl) phosphonic acid]?
Safening from paraquat with pre-treatment with 1-MCP (in words) ([5]; tobacco, 1-MCP, an inhibitor of ethylene perception): observed regardless of pre-treatment with 1-MCP; Safening from paraquat herbicide damage (in words) [5, 6]: safened the plants from paraquat herbicide damage; Phytotoxicity at 4d post-spraying: Percent Leaf Area Affected ([5]; tobacco, COC 0.25%): 0 A Percent; Phytotoxicity at 6d post-spraying: Percent Leaf Area Affected ([5]; tobacco, COC 0.25%): 0 A Percent

With `O=C(O)c1cc(F)ccc1O` [5-FSA, 5-fluorosalicylate] as the molecule, how does the “Phytotoxicity at 6d” value ([5]; in vivo) read?
Its value is 2.3 B.

And the “Phytotoxicity at 8d” value ([5]; in vivo)?
Its value is 2.8 B.

And the “Phytotoxicity at 11d” value ([5]; in vivo)?
Its value is 2.0 B.

What about the “Safening from paraquat herbicide damage (in words)” value [5, 6] of the same molecule?
Its value is “able to safen tobacco from paraquat”.

What does the source list for `C[n+]1ccc(-c2cc[n+](C)cc2)cc1` [Paraquat, 1,1′-dimethyl-4,4′-bipyridinium ion]?
Phytotoxicity after 3 days in the light (5 days after initial spray) [1]: 5.0 D; Phytotoxicity after 12 days in the light (14 days after initial spray) [1]: 5.0 D; Phytotoxicity at 2d ([2]; in vivo): 3.9 C; Phytotoxicity at 2d: Percent Leaf Area Affected ([2]; in vivo): 72.5 C Percent; Phytotoxicity at 4d ([2]; in vivo): 3.9 BC; Phytotoxicity at 4d: Percent Leaf Area Affected ([2]; in vivo): 72.5 BC Percent; Phytotoxicity at 7d ([2]; in vivo): 3.9 BC; Phytotoxicity at 7d: Percent Leaf Area Affected ([2]; in vivo): 72.5 BC Percent; Phytotoxicity at 1d post-spraying [3]: 3.7 D; Phytotoxicity at 4d post-spraying [3]: 3.8 D; Phytotoxicity at 6d post-spraying [3]: 3.4 E; Phytotoxicity at 1d ([5]; in vivo): 4.1 E; Phytotoxicity at 1d: Percent Leaf Area Affected ([5]; in vivo): 75 E Percent; Phytotoxicity at 2d: Percent Leaf Area Affected ([5]; in vivo): 61.25 E Percent and 65 E Percent; Phytotoxicity at 4d: Percent Leaf Area Affected ([5]; in vivo): 62.5 F Percent; Phytotoxicity at 5d: Percent Leaf Area Affected ([5]; in vivo): 83.75 E Percent; Phytotoxicity at 7d: Percent Leaf Area Affected ([5]; in vivo): 50 D Percent and 96.5 D Percent; Phytotoxicity at 8d ([5]; in vivo): 5.0 C; Phytotoxicity at 10d: Percent Leaf Area Affected ([5]; in vivo): 99 F Percent; Phytotoxicity at 11d ([5]; in vivo): 5.0 E; Phytotoxicity at 12d ([5]; in vivo): 4.2 C; Phytotoxicity at 4d post-spraying: Percent Leaf Area Affected ([5]; tobacco, COC 0.25%): 95 C Percent; Phytotoxicity at 6d post-spraying: Percent Leaf Area Affected ([5]; tobacco, COC 0.25%): 97.5 C Percent

`CSC(=O)c1cccc2nnsc12` [Actigard, Benzo(1,2,3)thiadiazole-7-carbothioic acid-S-methyl ester] was tested. Which “Phytotoxicity at 2d: Percent Leaf Area Affected” value [2, 7] did it give?
The value was 0 A Percent.

What about the “Phytotoxicity at 4d: Percent Leaf Area Affected” value [2, 7] of the same molecule?
Its value is 0 A Percent.

What about the “Phytotoxicity at 7d: Percent Leaf Area Affected” value [2, 7] of the same molecule?
Its value is 0 A Percent.

And the “Phytotoxicity at 2d: Percent Leaf Area Affected” value [2, 8]?
The value was 0 A Percent.

What about the “Phytotoxicity at 4d: Percent Leaf Area Affected” value [2, 8] of the same molecule?
The value was 0 A Percent.

What about the “Phytotoxicity at 7d: Percent Leaf Area Affected” value [2, 8] of the same molecule?
Its value is 0 A Percent.

And the “Protection” value ([2]; lambsquarter, tank mixed or applied with paraquat)?
The value was “did show safening”.

What about the “Phytotoxicity at 2d: Percent Leaf Area Affected” value [5, 9] of the same molecule?
The value was 0 A Percent.

And the “Phytotoxicity at 4d: Percent Leaf Area Affected” value [5, 9]?
Its value is 0 A Percent.

What about the “Phytotoxicity at 7d: Percent Leaf Area Affected” value [5, 9] of the same molecule?
The value was 0 A Percent.

What about the “Phytotoxicity at 2d: Percent Leaf Area Affected” value [5, 10] of the same molecule?
Its value is 1 A Percent.

And the “Phytotoxicity at 4d: Percent Leaf Area Affected” value [5, 10]?
The value was 0 A Percent.

What about the “Phytotoxicity at 7d: Percent Leaf Area Affected” value [5, 10] of the same molecule?
Its value is 0 A Percent.

What about the “Safening from paraquat herbicide damage (in words)” value [5, 6] of the same molecule?
Its value is “safened the plants from paraquat herbicide damage”.
